Laboratory results: paper PMC10538209, “Ginsentide-like Coffeetides Isolated from Coffee Waste Are Cell-Penetrating and Metal-Binding Microproteins” (Molecules, 2023)
Positions of bridges follow the written chain, without caps; N, C: chain ends. Non-standard residues stand in square brackets, D forms with d. Residues, ends and D or L forms follow the SMILES beside them. pGlu = O=C1CC[C@@H](C(=O)O)N1

Assays:
Thermal stability assay = assay type: physicochemical; details: native cC1a 200 µM; high heat (95 °C in text; 100 °C water bath in legend and method), 2 h; quenched in ice bath; RP-UHPLC quantification; triplicate
Protocol: (§1) Figure 6 Stability assays of coffeetide cC1a. An amount of 200 µM coffeetide cC1a was subjected to (A) heat at 100 °C for 2 h, (B) acidic conditions in 1 M HCl (pH 2.0) for 2 h, (C) pepsin in 100 mM sodium citrate buffer (pH 2.5) for 6 h, (D) aminopeptidase I in 20 mM tricine for 6 h, and (E) human serum for 36 h. MALDI-TOF MS was used to characterize coffeetide cC1a and reversed-phase ultra-high pressure liquid chromatography was used to quantify cC1a in the treated samples to calculate the percentage of cC1a remaining intact.
(§2) Thermal and acidic stability: A solution of purified 200 µM coffeetide cC1a was subjected to rigorous conditions, including incubation at 100 °C in a water bath and exposure to 2 M hydrochloric acid for 2 h. The reactions were promptly quenched, either by placing the samples in an ice bath for 10 min or by adding 1 M sodium hydroxide at various time intervals (0, 30, 60, 90, 120 min). Subsequently, the treated samples were injected into RP-UHPLC to evaluate the presence of coffeetide cC1a and quantify any degradation. Each experiment was conducted in triplicate, and MALDI-TOF MS was employed to analyze the collected peaks.

Acidic stability assay = assay type: physicochemical; details: native cC1a 200 µM; acidic conditions (pH 2), 1 M HCl in legend, 2 M HCl in method, 2 h; quenched with 1 M NaOH; RP-UHPLC; triplicate
Protocol: as §1, §2

pepsin = system: T1, pepsin; assay: Proteolytic stability, pepsin; assay type: in vitro ADME; details: native cC1a 200 µM, 4 mg/mL pepsin in 100 mM sodium citrate buffer pH 2.5, 37 °C, RP-UHPLC, read-out: coffeetide remained intact with pepsin
T1 construct: purchased Sigma Aldrich or Fisher Scientific (general statement only)
Protocol: as §1
(§3) Proteolytic stability: In this test, purified 200 µM coffeetide cC1a was exposed to 37 °C for 6 h in the presence of 4 mg/mL of pepsin in a 100 mM sodium citrate buffer (pH 2.5) or 20 U/mL of aminopeptidase I in 20 mM tricine and 0.05% bovine serum albumin (pH 8.0). The peptide-to-enzyme ratio (w/w) was maintained at either 20:1 or 50:1. At specific time intervals (0, 2, 4, and 6 h), 20 µL of each sample was injected into RP-UHPLC to monitor degradation.

aminopeptidase I = system: T2, aminopeptidase I; assay: Proteolytic stability, aminopeptidase I; assay type: in vitro ADME; details: native cC1a 200 µM, 20 U/mL aminopeptidase I in 20 mM tricine, 0.05% BSA, pH 8.0, 37 °C, RP-UHPLC, read-out: coffeetide remained intact with aminopeptidase
T2 construct: purchased Sigma Aldrich or Fisher Scientific (general statement only)
Protocol: as §1, §3

[1] = Human serum-mediated stability; assay type: in vitro ADME; details: 25% human serum (AB-type) in DMEM, native cC1a, 25% human male serum (AB-type) in phenol red-free DMEM, 37 °C, ethanol precipitation, RP-UHPLC, read-out: coffeetide remained after treatment with human serum
Protocol: as §1
Human serum-mediated stability: To assess stability in a biologically relevant context, purified 200 µg coffeetide cC1a was incubated with 25% human male serum (AB-type) in phenol red-free Dulbecco’s Modified Eagle Medium (DMEM) at 37 °C for 48 h. At defined time points (0 h, 12 h, 24 h, and 48 h), 50 µL of the samples were collected and treated with 100 µL of 95% ethanol to precipitate serum proteins. After incubation at 4 °C for 15 min and centrifugation at 13,000 rpm for 10 min, the extent of degradation was evaluated through RP-UHPLC chromatograms.

HeLa cells = assay: MTT toxicity assay, HeLa; assay type: cell-based, human; details: 24 h treatment, concentrations up to 100 µM, MTT absorbance 550 nm, mean ± S.E.M. n = 3
Protocol: (§4) HeLa cells (human cervical cancer cells) and HUVEC-CS (human umbilical vein endothelial cells) were cultured in DMEM (Dulbecco’s Modified Eagle Medium) from Thermo Scientific, supplemented with 10% fetal bovine serum, 100 U/mL of penicillin, and streptomycin. Cell cultures were maintained in a 5% CO2 incubator at 37 °C.
(§5) To evaluate cell viability, a 3-(4,5-dimethylthiazolyl-2)-2,5-diphenyltetrazolium bromide (MTT) dye reduction assay was employed. In brief, HeLa and HUVEC-CS cells were subjected to treatment with either coffeetide cC1a or 0.1% Triton X-100 (utilized as a positive control) for a duration of 24 h. Following the incubation period, MTT was introduced to the cells to achieve a final concentration of 0.5 mg/mL and incubated for 3 h at 37 °C. The resulting insoluble formazan crystals were subsequently dissolved by the addition of dimethyl sulfoxide, and absorbance was measured at 550 nm using a microplate reader (Tecan Infinite® 200 Pro, Switzerland).

HUVEC-CS cells = assay: MTT toxicity assay, HUVEC-CS; assay type: cell-based, human; details: 24 h treatment, concentrations up to 100 µM, MTT absorbance 550 nm, mean ± S.E.M. n = 3
Protocol: as §4, §5

[2] = Isothermal titration calorimetry (ITC), Mg2+; details: 10 mM Tris, 100 mM NaCl, pH 6.3, 20 °C in text (298 K in method), synthetic cC1a, read-out: binding affinity (KD) to Mg^2+
Protocol: (§6) Isothermal Titration Calorimetry (ITC) experiments were conducted at 298 K using the MicroCal PEAQ ITC system from Malvern Instruments Ltd., Malvern, UK. MgCl2, KCl, CaCl2, and FeCl3 were dissolved in a 10 mM Tris buffer containing 100 mM NaCl at a pH of 6.3. Similarly, coffeetide cC1a was prepared in the same buffer. In the initial set of experiments, 200 µM of these ions were incrementally titrated into cC1a, involving twenty 2.5 µL injections, while simultaneously measuring the heat changes. Additional experiments were conducted with higher concentrations of KCl, MgCl2, and FeCl3 interacting with cC1a. Specifically, 400 µM of KCl, MgCl2, and FeCl3 were titrated into a solution containing 40 µM of cC1a, utilizing twenty 2.5 µL injections, and monitoring the associated heat changes. Control experiments were conducted by titrating ions into a 10 mM Tris (pH 6.3) buffer containing 100 mM NaCl to account for heat changes resulting from dilution. The obtained titration curves were analyzed using MicroCal PEAQ-ITC analytics software (version 1.0.0.1259, Malvern Instruments Ltd.).

[3] = Isothermal titration calorimetry (ITC), Fe3+; details: 10 mM Tris, 100 mM NaCl, pH 6.3, 20 °C in text (298 K in method), synthetic cC1a, read-out: binding affinity (KD) to Fe^3+
Protocol: as §6

[4] = Isothermal titration calorimetry (ITC), Ca2+; assay type: binding; details: 200 µM metal ion titrated into cC1a, 10 mM Tris, 100 mM NaCl, pH 6.3
Protocol: as §6

[5] = Isothermal titration calorimetry (ITC), K+; assay type: binding; details: 200 µM (also 400 µM) metal ion titrated into cC1a, 10 mM Tris, 100 mM NaCl, pH 6.3
Protocol: as §6

CC[C@H](C)[C@@H]1NC(=O)[C@@H]2CSSC[C@@H]3NC(=O)[C@@H]4CCCN4C(=O)[C@H](CCC(=O)O)NC(=O)CNC(=O)[C@H](CC(C)C)NC(=O)[C@@H]4CCCN4C(=O)[C@H](CO)NC(=O)[C@@H](NC(=O)[C@H](CCC(=O)O)NC(=O)CNC(=O)[C@H](CCC(=O)O)NC(=O)[C@@H]4CCC(=O)N4)CSSC[C@@H]4NC(=O)[C@H](CSSC[C@H](NC(=O)[C@H](CCCNC(=N)N)NC(=O)[C@H](CC(=O)O)NC(=O)[C@H]([C@@H](C)O)NC(=O)[C@H](CC(C)C)NC(=O)[C@H](CCC(N)=O)NC(=O)[C@H](Cc5c[nH]c6ccccc56)NC1=O)C(=O)N[C@@H](C(C)C)C(=O)NCC(=O)N[C@@H](CC(N)=O)C(=O)N[C@H](C(=O)O)CSSC[C@H](NC(=O)CNC(=O)[C@@H]1CCCN1C4=O)C(=O)N[C@@H]([C@@H](C)CC)C(=O)N2)NC(=O)CNC(=O)[C@H](Cc1c[nH]c2ccccc12)NC(=O)[C@@H]1CCCN1C(=O)[C@H](CC(N)=O)NC(=O)CNC(=O)[C@H](C)NC3=O [cC1a] ([pGlu]EGECSPLGEPCAGNPWGCCPGCICIWQLTDRCVGNC-OH; disulfide 5-20, 12-25, 19-33, 23-37)
coffeetide remained intact under high heat (Thermal stability assay): > 88% | coffeetide remained intact under acidic conditions (Acidic stability assay): > 88% | remaining at 6 h, 200 µM (pepsin): > 90% | remaining at 6 h, 200 µM (aminopeptidase I): > 90% | remaining at 36 h, 200 µM [1]: > 85% | cytotoxicity (MTT cell viability) (HeLa cells): not cytotoxic | cytotoxicity (MTT cell viability) (HUVEC-CS cells): not cytotoxic | Kd [2]: 4190 ± 4790 nM | Kd [3]: 1670 ± 1800 nM | binding affinity to Ca^2+ [4]: does not display reproducible binding affinity | binding affinity to K^+ [5]: does not display reproducible binding affinity
